Laboratory results: ChEMBL document CHEMBL5506051, “Structure-Activity Relationships toward the Identification of a High-Potency Selective Human Toll-like Receptor-7 Agonist” (J Med Chem, 2024)

Experiments:
Toll-like receptor 8 = target: T1, Toll-like receptor 8 (Homo sapiens, UniProt Q9NR97); assay: Agonist activity at human TLR8 in HEK-Blue hTLR8 cells assessed as increase in inducible SEAP level incubated for overnight by QUANTI-Blue reagent based assay; assay type: cell-based
T1 sequence (Q9NR97 whole entry): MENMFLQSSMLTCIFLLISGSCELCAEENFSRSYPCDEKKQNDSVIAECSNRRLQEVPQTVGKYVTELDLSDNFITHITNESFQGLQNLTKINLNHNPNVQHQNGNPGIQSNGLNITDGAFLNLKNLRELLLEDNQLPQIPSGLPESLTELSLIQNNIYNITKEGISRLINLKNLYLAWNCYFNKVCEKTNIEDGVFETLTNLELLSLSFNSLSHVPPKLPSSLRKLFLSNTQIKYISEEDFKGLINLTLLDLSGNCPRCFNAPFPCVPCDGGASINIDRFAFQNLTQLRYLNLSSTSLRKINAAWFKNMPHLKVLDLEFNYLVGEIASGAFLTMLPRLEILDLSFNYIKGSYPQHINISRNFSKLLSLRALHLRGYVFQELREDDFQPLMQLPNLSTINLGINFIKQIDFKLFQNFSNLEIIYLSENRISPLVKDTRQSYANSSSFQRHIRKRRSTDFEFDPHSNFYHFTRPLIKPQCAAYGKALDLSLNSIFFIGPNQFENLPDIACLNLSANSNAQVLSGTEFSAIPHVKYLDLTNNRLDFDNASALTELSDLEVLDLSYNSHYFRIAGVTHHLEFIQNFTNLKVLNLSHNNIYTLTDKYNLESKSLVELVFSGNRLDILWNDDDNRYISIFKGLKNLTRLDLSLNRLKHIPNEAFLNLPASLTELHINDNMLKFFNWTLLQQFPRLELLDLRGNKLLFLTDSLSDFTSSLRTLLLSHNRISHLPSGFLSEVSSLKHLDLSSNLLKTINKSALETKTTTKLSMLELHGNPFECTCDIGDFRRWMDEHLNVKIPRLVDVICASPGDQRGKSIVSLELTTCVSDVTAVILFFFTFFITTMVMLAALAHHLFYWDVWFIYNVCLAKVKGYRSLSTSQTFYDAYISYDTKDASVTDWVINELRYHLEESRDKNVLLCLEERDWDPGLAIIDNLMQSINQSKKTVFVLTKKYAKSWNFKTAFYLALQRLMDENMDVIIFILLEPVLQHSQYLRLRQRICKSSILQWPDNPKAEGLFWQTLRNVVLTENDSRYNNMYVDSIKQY

Toll-like receptor 7 = target: T2, Toll-like receptor 7 (Homo sapiens, UniProt Q9NYK1); assay: Agonist activity at human TLR7 in HEK-Blue hTLR7 cells assessed as increase in inducible SEAP level incubated for overnight by QUANTI-Blue reagent based assay; assay type: cell-based
T2 sequence (Q9NYK1 whole entry): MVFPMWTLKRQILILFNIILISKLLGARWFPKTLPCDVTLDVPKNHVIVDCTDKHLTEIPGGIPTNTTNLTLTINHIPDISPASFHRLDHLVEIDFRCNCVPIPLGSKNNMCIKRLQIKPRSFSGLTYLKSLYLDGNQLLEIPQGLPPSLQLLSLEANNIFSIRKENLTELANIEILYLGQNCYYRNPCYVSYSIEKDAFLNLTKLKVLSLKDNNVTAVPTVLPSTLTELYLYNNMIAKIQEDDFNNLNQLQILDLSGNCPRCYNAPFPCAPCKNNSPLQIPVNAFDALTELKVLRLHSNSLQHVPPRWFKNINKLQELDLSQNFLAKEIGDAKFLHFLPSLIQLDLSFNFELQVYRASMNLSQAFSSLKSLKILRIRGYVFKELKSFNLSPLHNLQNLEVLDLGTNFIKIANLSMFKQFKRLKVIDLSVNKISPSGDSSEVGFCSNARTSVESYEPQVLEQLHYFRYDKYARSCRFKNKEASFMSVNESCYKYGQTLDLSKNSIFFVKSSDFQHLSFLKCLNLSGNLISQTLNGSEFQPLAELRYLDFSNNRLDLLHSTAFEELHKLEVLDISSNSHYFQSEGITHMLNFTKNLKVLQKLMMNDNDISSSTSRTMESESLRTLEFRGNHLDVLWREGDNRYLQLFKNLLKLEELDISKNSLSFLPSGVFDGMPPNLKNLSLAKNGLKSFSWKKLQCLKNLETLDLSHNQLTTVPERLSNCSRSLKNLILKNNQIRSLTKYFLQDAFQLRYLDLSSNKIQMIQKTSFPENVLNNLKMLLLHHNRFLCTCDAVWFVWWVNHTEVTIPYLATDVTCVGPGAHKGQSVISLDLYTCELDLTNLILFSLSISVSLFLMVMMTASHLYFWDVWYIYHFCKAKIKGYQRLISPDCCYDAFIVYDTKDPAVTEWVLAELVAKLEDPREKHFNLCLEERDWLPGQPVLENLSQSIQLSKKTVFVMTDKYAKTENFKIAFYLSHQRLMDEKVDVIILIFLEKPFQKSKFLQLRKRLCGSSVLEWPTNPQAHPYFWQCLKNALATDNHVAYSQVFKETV

[1] = system: Panel NCI-60 (60 carcinoma cell lines); assay: Cytotoxicity against human Panel NCI-60 (60 carcinoma cell lines) at <=10 uM; assay type: toxicity, cell-based
[2] = target: T3, Toll-like receptor 7 (Homo sapiens) (UniProt Q9NYK1); assay: Potency index, ratio of BBIQ EC50 to test compound EC50 for agonist activity at human TLR7 in HEK-Blue hTLR7 cells assessed as increase in inducible SEAP level incubated for overnight by QUANTI-Blue reagent based assay; assay type: cell-based; conditions: filed as agonist
T3 sequence (whole entry): T2 sequence (Q9NYK1 whole entry)

Homo sapiens [3] = species: Homo sapiens; assay: Selectivity index, ratio of EC50 for agonist activity at human TLR7 in HEK-Blue hTLR7 cells to EC50 for agonist activity at human TLR8 in HEK-Blue hTLR8 cells; assay type: cell-based
Homo sapiens [4] = species: Homo sapiens; assay: Selectivity ratio of agonist activity at human TLR8 to agonist activity at human TLR7

EC50 (Toll-like receptor 8) | EC50 (Toll-like receptor 7) | SMILES | further results
50.3 µM | – | CCCCc1nc2c(N)nc3ccccc3c2n1Cc1ccc(C(=O)NCCO)cc1 | –
– | 1.1 µM | CCCCc1nc2c(N)nc3ccccc3c2n1Cc1ccc(C(=O)NN)cc1 | –
– | 0.85 µM | CCCCc1nc2c(N)nc3ccccc3c2n1Cc1ccccc1 | –
– | – | CCCCCCCCNC(=O)c1ccc(Cn2c(CCCC)nc3c(N)nc4ccccc4c32)cc1 | Activity [1]: Non-Toxic
125 µM | – | CCCCc1nc2c(N)nc3ccccc3c2n1Cc1ccc(O)cc1 | –
25.8 µM | 0.31 µM | CCCCc1nc2c(N)nc3ccccc3c2n1Cc1ccc(C(=O)NCC(C)(C)O)cc1 | –
– | 1.83 µM | CCCCc1nc2c(N)nc3ccccc3c2n1Cc1ccc(OC)cc1 | –
– | 8.29 µM | CC(C)Cn1cnc2c(N)nc3ccccc3c21 [IMIQUIMOD] | –
18.2 µM | 0.32 µM | CCCCc1nc2c(N)nc3ccccc3c2n1Cc1ccc(C(N)=O)cc1 | Ratio EC50 [2]: 3; Ratio EC50 (Homo sapiens [3]): 57
31.8 µM | 0.2 µM | CCCCc1nc2c(N)nc3ccccc3c2n1Cc1ccc(C(=O)NC)cc1 | Activity [1]: Non-Toxic; Ratio EC50 [2]: 8; Ratio EC50 (Homo sapiens [3]): 159
– | – | CCCCOc1nc(N)c2c(n1)N(Cc1cccc(CN3CCCC3)c1)CC(=O)N2 | Selectivity ratio (Homo sapiens [4]): 30
